Laboratory results as given in patent US11053219B2, “Substituted pyridines as TYK2 inhibitors” (FronThera U.S. Pharmaceuticals LLC, priority 2018, dated 2021).
Where two headings read alike, the source gives them in different places.

Assays:
TYK2 (JH2 domain) = TYK2 (JH2 domain) (Homo sapiens (Human), UniProt P29597); test: TYK2 JH2 domain binding assay (DiscoverX KINOMEscan); settings: 11-point 3-fold dilution, duplicate
JAK1 (JH2 domain) = JAK1 (JH2 domain) (Homo sapiens (Human), UniProt P23458); test: JAK1 JH2 domain binding assay (KINOMEscan)
JAK2 (JH1 domain) = JAK2 (JH1 domain) (Homo sapiens (Human), UniProt O60674); test: JAK2 JH1 domain binding assay (KINOMEscan)
Description: The assay is performed by combining three components: DNA-tagged kinase; immobilized ligand; and a test compound. The ability of the test compound to compete with the immobilized ligand is measured via quantitative PCR of the DNA tag.
The liganded beads were blocked with excess biotin and washed with blocking buffer (SeaBlock (Pierce), 1% BSA, 0.05% Tween 20, 1 mM DTT) to remove unbound ligand and to reduce non-specific binding. […] Test compounds were prepared as 111× stocks in 100% DMSO. All test compounds were shipped to DiscoverX in DMSO with concentration of 10 mM. Kds were determined using an 11-point 3-fold compound dilution series with three DMSO control points. Each compound was tested in duplicate. […] The compounds were then diluted directly into the assays such that the final concentration of DMSO was 0.9%. All reactions performed in polypropylene 384-well plate. Each was a final volume of 0.02 ml. […] The kinase concentration in the eluates was measured by qPCR.
The amount of kinase measured by qPCR (Signal; y-axis) is plotted against the corresponding compound concentration in nM in log 10 scale (x-axis). Binding constants (Kds) were calculated with a standard dose-response curve using the Hill equation:
Similar to the method for TYK2 JH2 binding described above, JAK1 JH2 and JAK2 JH1 domain binding assay was performed using DiscoverX's KINOMEscan™, but with change of kinase domain.

[1] = tested on: INFα induced pSTAT5 in human PBMC; test: INFα induced pSTAT5 in human PBMC; assay type: cell-based; settings: human PBMC, INFα 5000 units/ml; read-out: p-STAT5 IC50
[2] = KINOMEscan, read-out: JAK1 (JH2 domain) binding Kd

JAK2 (JH1 domain), sequence (O60674 849-1124): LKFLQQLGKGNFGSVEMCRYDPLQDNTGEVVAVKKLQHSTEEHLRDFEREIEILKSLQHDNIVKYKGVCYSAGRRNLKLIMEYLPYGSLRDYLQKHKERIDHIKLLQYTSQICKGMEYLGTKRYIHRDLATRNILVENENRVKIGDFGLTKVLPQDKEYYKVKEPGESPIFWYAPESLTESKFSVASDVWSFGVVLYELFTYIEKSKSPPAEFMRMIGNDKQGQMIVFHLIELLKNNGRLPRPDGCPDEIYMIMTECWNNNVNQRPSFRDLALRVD
JAK1 (JH2 domain), sequence (P23458 583-855): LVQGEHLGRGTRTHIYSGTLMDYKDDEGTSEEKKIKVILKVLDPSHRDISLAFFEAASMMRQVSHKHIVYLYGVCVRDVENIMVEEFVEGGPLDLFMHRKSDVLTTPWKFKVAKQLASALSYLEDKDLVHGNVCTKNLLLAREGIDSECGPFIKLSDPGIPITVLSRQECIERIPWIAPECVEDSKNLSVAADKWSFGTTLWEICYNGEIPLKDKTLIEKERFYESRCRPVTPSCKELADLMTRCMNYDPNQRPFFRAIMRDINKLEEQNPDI
TYK2 (JH2 domain), sequence (P29597 589-875): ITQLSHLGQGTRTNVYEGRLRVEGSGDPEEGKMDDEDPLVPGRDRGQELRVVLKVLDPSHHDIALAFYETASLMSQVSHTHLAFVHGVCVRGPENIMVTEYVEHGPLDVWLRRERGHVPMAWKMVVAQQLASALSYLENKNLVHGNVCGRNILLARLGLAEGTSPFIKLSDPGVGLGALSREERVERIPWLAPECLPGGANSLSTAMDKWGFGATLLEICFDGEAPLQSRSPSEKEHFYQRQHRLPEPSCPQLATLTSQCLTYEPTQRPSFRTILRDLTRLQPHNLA

| SMILES | Kd (TYK2 (JH2 domain)) | Kd (JAK1 (JH2 domain); [2]) | Kd (JAK2 (JH1 domain)) | IC50 [1] | Kd (JAK1 (JH2 domain)) |
| --- | --- | --- | --- | --- | --- |
| [2H]C([2H])([2H])NC(=O)c1nnc(N2CCN(C(C)C)C2=O)cc1Nc1nccc(-c2ncn(C)n2)c1OC [Example 147, 6-(3-isopropyl-2-oxo-imidazolidin-1-yl)-4-[[3-methoxy-4-(1-methyl-1,2,4-triazol-3-yl)-2-pyridyl]amino]-N-(trideuteriomethyl)pyridazine-3-carboxamide] | ≤ 1 nM | < 100 nM | > 10000 nM | < 100 nM | – |
| CC(C)(O)c1ccc(Nc2cc(Nc3ncccc3S(C)(=O)=O)c(C(=O)C3CC3)cn2)nc1F [Example 159] | ≤ 1 nM | < 100 nM | 1000 to 10000 nM | < 100 nM | – |
| CCC(=O)c1cnc(NC(=O)C2CC2)cc1Nc1nccc(-c2ncn(C)n2)c1OC [Example 163] | ≤ 1 nM | – | 100 to 1000 nM | < 100 nM | < 100 nM |
| COc1c(-c2ncn(C)n2)ccnc1Nc1cc(NC(=O)C2CC2)ncc1C(=O)C1CC1 [Example 166] | – | < 100 nM | 1000 to 10000 nM | < 100 nM | – |
